Laboratory results taken from patent US10899766B2, “Bridged piperidine derivatives” (Hoffmann-La Roche Inc., priority 2016, dated 2021).

What follows are molecules tested on γ-secretase (assay: Cellular γ-secretase assay (inhibition of Aβ42 secretion, AlphaLisa)). Conditions: Human neuroglioma H4 cells overexpressing human APP695 Swedish double mutation; 24 hr compound incubation; secreted Aβ42 in supernatant.
Assay type: cell-based
Procedure: Cellular γ-Secretase Assay
Human neuroglioma H4 cells overexpressing human APP695 with the Swedish double mutation (K595N/M596L) were plated at 30,000 cells/well/100 μl in 96-well plates in IMDM media containing 10% FCS, 0.2 mg/l Hygromycin B and incubated at 37° C., 5% CO2.
3-4 hr post plating, compounds are a diluted in media and 50 μl is added as 1.5-fold concentrate to achieve the final concentration. Compound incubation is performed for 24 hr. Final doses typically range from 4 μM down to 0.0013 μM in half-log steps resulting in a eight point dose response curve.
Appropriate controls using vehicle only and reference compound were applied to this assay. The final concentration of Me2SO was 0.4%.
After incubation at 37° C., 5% CO2, the supernatant was subjected to quantification of secreted Aβ42 by the means of an AlphaLisa assay kit (Human Amyloid beta 1-42 Kit: Cat # AL203C, Perkin Elmer). 20 μl of the cell culture supernatant was transferred to an assay plate. Then 10 μl of a mixture of the AlphaLisa coupled capture antibody and the biotinylated detection antibody was added and incubated for 3 hours at room temperature while softly shaking the assay plate. After a further addition of 20 μl of the Donor beads the assay plate was incubated for 30 min at room temperature and constant shaking without exposure to direct light.
The assay plate was then read on a Paradigm AlphaLisa Reader using the build-in program with excitation at 680 nm and emission at […].
The measured signals were then used to calculate IC50 values for inhibition of Aβ42 secretion by nonlinear regression fit analysis using XLfit 5.3 software (IDBS).
With Cc1cc(N2C[C@H]3CC[C@@H](C2)[C@@H]3Nc2nc3n(n2)CCCCN3c2ccc(F)c(F)c2)ncn1 [Example 23, 4-(3,4-difluorophenyl)-N-[(1R,5S,8S)-3-(6-methylpyrimidin-4-yl)-3-azabicyclo[3.2.1]octan-8-yl]-5,6,7,8-tetrahydro-[1,2,4]triazolo[1,5-a][1,3]diazepin-2-amine] the EC50 was 23.3 nM. Molecule COc1cc(N2C[C@H]3CC[C@@H](C2)[C@@H]3Nc2nc3n(n2)CCCCN3c2ccc(F)c(F)c2)ncn1 [Example 24, 4-(3,4-difluorophenyl)-N-[(1R,5S,8S)-3-(6-methoxypyrimidin-4-yl)-3-azabicyclo[3.2.1]octan-8-yl]-5,6,7,8-tetrahydro-[1,2,4]triazolo[1,5-a][1,3]diazepin-2-amine] has an EC50 of 80.4 nM. In the case of Fc1ccc(N2CCCCn3nc(N[C@@H]4[C@@H]5CC[C@H]4CN(c4cnnc(Cl)c4)C5)nc32)cc1F [Example 25, N-[(1R,5S,8S)-3-(6-chloropyridazin-4-yl)-3-azabicyclo[3.2.1]octan-8-yl]-4-(3,4-difluorophenyl)-5,6,7,8-tetrahydro-[1,2,4]triazolo[1,5-a][1,3]diazepin-2-amine], the EC50 is reported as 23.4 nM.
